From paper PMC6502086 (Molecular Biology and Evolution, 2019) come the findings set out here.

The assay has as its target T1, Or22a (Or22a^1; ab3A-1 neurons) (Drosophila melanogaster, UniProt P81909).
T1 sequence (P81909 1-397): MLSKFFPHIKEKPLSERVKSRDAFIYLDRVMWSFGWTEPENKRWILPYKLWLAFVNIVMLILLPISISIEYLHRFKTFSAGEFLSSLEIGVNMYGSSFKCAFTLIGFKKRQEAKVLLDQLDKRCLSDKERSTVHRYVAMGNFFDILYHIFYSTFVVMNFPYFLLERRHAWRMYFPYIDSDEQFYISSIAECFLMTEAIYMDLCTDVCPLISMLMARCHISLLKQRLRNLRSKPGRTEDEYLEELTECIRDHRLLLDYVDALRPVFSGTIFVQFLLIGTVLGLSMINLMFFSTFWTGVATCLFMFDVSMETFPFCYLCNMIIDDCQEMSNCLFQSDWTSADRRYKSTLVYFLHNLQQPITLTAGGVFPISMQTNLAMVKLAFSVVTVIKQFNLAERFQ
T1 sequence (Q9VNB5 1-486 partner): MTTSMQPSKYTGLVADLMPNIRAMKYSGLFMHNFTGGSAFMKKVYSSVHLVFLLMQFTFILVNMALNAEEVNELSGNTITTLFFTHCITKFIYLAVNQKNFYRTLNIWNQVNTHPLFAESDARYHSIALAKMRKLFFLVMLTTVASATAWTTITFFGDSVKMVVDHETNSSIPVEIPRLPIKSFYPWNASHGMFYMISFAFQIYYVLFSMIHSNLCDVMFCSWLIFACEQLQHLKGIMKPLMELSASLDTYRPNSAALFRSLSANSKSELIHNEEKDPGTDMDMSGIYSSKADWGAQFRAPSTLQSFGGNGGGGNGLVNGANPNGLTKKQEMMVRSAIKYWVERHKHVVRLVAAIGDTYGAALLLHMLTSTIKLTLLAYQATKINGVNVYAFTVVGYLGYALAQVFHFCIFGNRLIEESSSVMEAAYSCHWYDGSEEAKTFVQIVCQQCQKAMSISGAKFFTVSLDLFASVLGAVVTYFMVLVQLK
In words: single-sensillum recording, transgene in empty ab3A neuron.

Take `CCOC(=O)C(C)CC` (centres unmarked) [ethyl 2-methyl butanoate]: where the note is “odorant at 10^−2 v/v in paraffin oil”, the spikes/s entry was “flies expressing Or22ab have decreased responses to ethyl hexanoate, methyl hexanoate, and ethyl 2-methyl butanoate”.

Consider `CCCCCC(=O)OC` [methyl hexanoate], for which, where the note is “odorant at 10^−4 v/v in paraffin oil”, the spikes/s result was “flies expressing Or22ab have decreased responses to ethyl hexanoate, methyl hexanoate, and ethyl 2-methyl butanoate”.
